Measurements: PMC6071225 (Viruses, 2018)
Where two headings read alike, the source gives them in different places.

Key:
[1] = tested on: catalytic domain of wild-type NA2009; assay type: binding; settings: wt
[2] = tested on: wt NA2009; assay type: biochemical
[3] = 50 mM MES (or ACES), pH 6.15, 25 °C
[4] = 50 mM MES (or ACES), pH 6.15, 25 °C, listed as Oseltamivir

In the case of CCC(CC)O[C@@H]1C=C(C(=O)O)C[C@H](N)[C@H]1NC(C)=O [oseltamivir carboxylate], the “Fold Kd” value ([1]; compared with that of wt NA2009) is reported as 1 fold, the Kd [1, 3] is reported as 140 ± 20 nM and the ΔG [1, 3] is reported as -9.4 ± 0.1 kcal/mol. For the same compound, the ΔH [1, 3] was -10.8 ± 0.1 kcal/mol, the “−T·ΔS” value [1, 3] was 1.5 ± 0.2 kcal/mol and the ΔG [1, 4] was -9.4 kcal/mol. For the same compound, the ΔH [1, 4] was -10.8 kcal/mol, the “−T·ΔS” value [1, 4] was 1.5 kcal/mol and the “Fold Ki” value ([2]; wt NA2009, compared with that of wt NA2009) was 1 fold. It also gave a Ki ([2]; wt NA2009, mean ± s.d., two independent experiments, 37 °C) of 24 ± 4 nM.
